Experiments:
[1] = molecular target: T1, S. pyogenes GapN (Streptococcus pyogenes, UniProt Q99Z67); assay: Activity of purified GapN (NADP+ reduction, absorption at 340 nm); type: biochemical, S. pyogenes M49 strain 591
T1 sequence (Q99Z67 1-475): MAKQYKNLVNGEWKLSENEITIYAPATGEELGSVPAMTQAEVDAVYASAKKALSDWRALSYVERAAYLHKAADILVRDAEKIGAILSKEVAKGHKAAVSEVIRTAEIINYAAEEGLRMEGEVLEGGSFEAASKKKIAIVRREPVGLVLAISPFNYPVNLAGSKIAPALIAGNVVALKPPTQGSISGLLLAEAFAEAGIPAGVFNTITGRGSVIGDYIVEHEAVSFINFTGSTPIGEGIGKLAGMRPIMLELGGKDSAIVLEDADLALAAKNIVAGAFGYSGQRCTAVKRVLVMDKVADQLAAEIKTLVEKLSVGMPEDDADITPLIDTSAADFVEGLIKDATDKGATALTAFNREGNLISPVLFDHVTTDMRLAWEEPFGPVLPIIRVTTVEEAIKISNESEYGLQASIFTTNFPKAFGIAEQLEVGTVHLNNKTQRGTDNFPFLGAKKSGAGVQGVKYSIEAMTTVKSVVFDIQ
Experimental: (§1) Fractions containing pure protein were pooled and dialyzed overnight in PBS or 0.1 M citric acid (pH 6.0) to prepare them for enzymatic assays.
(§2) For the measurement of activity of purified GapN, the protein concentration was adjusted to 70 μg/ml. The specific GapN activity was measured as described in [Iddar et al. (2003)] with modification of the protocol. […] The reaction was started by adding DL-G3P. […] As controls, the assay was carried out without addition of protein sample and without addition of G3P, respectively. GapN activity was calculated with the Lambert-Beer equation and expressed in units per milligram of total protein (U/mg), where one unit is defined as the formation of 1 μmol NADPH per minute. […] Potential activating or inhibiting effects on GapN activity were tested by adding 25 mM NaCl, 25 mM KCl, 25 mM NH4Cl, 10 mM D-glucose, 10 mM D-fructose, 10 mM sodium pyruvate, 10 mM ATP, 2 mM erythrose 4-phosphate (E4P), 2 mM sedoheptulose 7-phosphate (S7P), 0.4 mM NADH or 0.4 mM NADPH to the assay mixture.

[2] = test system: S. mutans GapN; details: ref Crow and Wittenberger, 1979; cited from earlier work
Text: E4P and phosphohydroxypyruvate were also described to inhibit GapN extracted from pea shoots, maize leaf and the green algae Chlamydomonas reinhardtii ([Kelly and Gibbs, 1973]; [Iglesias et al., 1987]). E4P and S7P are produced in the non-oxidative part of the PPP ([Stincone et al., 2015]), which is present in S. pyogenes. Thus, they could play a role in the in vivo regulation of the enzyme. […] ATP is generated during glycolysis, which provides most of the energy in S. pyogenes.

[3] = test system: S. pyogenes GapN; details: ref Iddar et al., 2003; cited from earlier work
Text: The non-phosphorylating glyceraldehyde-3-phosphate dehydrogenase GapN has been predicted to be an essential enzyme in S. pyogenes M49 based on gene essentiality analyses via transposon mutant libraries ([Le Breton et al., 2015]).

[4] = molecular target: non-phosphorylating glyceraldehyde-3-phosphate dehydrogenase GapN of S. pyogenes M49 strain 591 (wild type) (S. pyogenes M49 strain 591); assay: SEC-MALS; HiLoad 16/600 Superdex 200 pg, room temperature, 1 x PBS pH 7.4, 0.5 ml/min; oligomeric state in solution
[5] = substrate: O=CC(O)COP(=O)(O)O; assay: purified protein, by the assay type; type: biochemical, S. pyogenes M49 strain 591; details: other: Strep-tagged GapN; ± standard error printed (0.05 NADP; 0.19 DL-G3P)
Experimental: as §1, §2

For `Nc1ncnc2c1ncn2[C@@H]1O[C@H](COP(=O)(O)OP(=O)(O)OP(=O)(O)O)[C@@H](O)[C@H]1O` [ATP], the “Reduction of the activity of purified GapN” value ([1]; 10 mM ATP added to standard assay (10 mM NADP+, 2 mM DL-G3P, pH 8.5), n = 4) is listed as 50% and the “Effect on S. mutans GapN activity” value [2] is listed as “inhibited by ATP to some extent”.

For `O=C[C@H](O)[C@H](O)COP(=O)(O)O` [E4P, erythrose 4-phosphate], the “Reduction of the activity of purified GapN” value ([1]; 2 mM E4P added to standard assay (10 mM NADP+, 2 mM DL-G3P, pH 8.5), n = 4) is given as 90%, the “Specific GapN activity relative to standard assay mix” value ([1]; in the presence of 2 mM E4P, mean ± SD, n = 4) is given as 10.8 ± 1.9% and the “Effect on S. mutans GapN activity” value [2] is given as “inhibitory effects”.

For `O=CC(O)COP(=O)(O)O` (stereo not drawn) [G3P, glyceraldehyde 3-phosphate], the Km [3] is listed as 666 µM.

For `O=C(CO)[C@@H](O)[C@H](O)[C@H](O)[C@H](O)COP(=O)(O)O` [S7P, sedoheptulose 7-phosphate], the “Effect on specific activity of purified GapN” value ([1]; added to standard assay: 25 mM salts, 10 mM sugars/pyruvate, 2 mM S7P, 0.4 mM NADH or NADPH, n = 4, one-way ANOVA) is given as “does not inhibit” and the “Effect on S. mutans GapN activity” value [2] is given as “inhibitory effects”.

In the case of `O=C(O)C(=O)COP(=O)(O)O` [phosphohydroxypyruvate], the “Effect on S. mutans GapN activity” value [2] is given as “inhibitory effects”.

For NADP, the Km [3] is listed as 385 µM.

For “non-phosphorylating glyceraldehyde-3-phosphate dehydrogenase GapN of S. pyogenes M49 strain 591 (wild type) (enzyme)”, the stoichiometry N [4] was 4.

B1: S. pyogenes GapN (Streptococcus pyogenes serotype M1) (protein)
chain: T1 sequence (Q99Z67 1-475)
Work on B1 yielded a Km [5] of 580 µM.
